Experimental data from ChEMBL document CHEMBL1148480, “Structure-activity studies of orexin a and orexin B at the human orexin 1 and orexin 2 receptors led to orexin 2 receptor selective and orexin 1 receptor preferring ligands” (J Med Chem, 2004).
Non-standard residues stand in square brackets, D forms with d. Residues, ends and D or L forms follow the SMILES beside them. pGlu = O=C1CC[C@@H](C(=O)O)N1; Abu = CC[C@H](N)C(=O)O; Ahx = NCCCCCC(=O)O

Target: T1, Orexin/Hypocretin receptor type 1 (Homo sapiens, UniProt O43613)
T1 sequence (O43613 whole entry): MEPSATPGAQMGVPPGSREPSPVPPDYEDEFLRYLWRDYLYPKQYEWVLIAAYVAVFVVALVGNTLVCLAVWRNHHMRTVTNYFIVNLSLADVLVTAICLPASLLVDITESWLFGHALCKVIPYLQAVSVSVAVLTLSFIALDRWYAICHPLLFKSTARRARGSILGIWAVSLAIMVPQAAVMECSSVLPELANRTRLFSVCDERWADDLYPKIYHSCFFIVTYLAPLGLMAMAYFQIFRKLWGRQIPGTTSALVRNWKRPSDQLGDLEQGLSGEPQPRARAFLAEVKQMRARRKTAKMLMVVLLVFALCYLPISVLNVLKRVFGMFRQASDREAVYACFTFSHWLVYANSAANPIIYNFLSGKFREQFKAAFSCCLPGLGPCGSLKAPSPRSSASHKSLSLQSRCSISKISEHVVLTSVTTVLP
Test: Effective agonist concentration to human orexin receptor type 1 determined using the Xlfit program
Assay type: functional

For `CC[C@H](NC(=O)[C@H](CO)NC(=O)[C@H](CS)NC(=O)[C@@H](NC(=O)[C@H](CCCCN)NC(=O)[C@H](CCC(N)=O)NC(=O)[C@H](CCCN=C(N)N)NC(=O)[C@H](CC)NC(=O)[C@H](CS)NC(=O)[C@H](CC(=O)O)NC(=O)[C@@H]1CCCN1C(=O)[C@H](CC(C)C)NC(=O)[C@@H]1CCCN1C(=O)[C@@H]1CCC(=O)N1)[C@@H](C)O)C(=O)N[C@@H](CCCN=C(N)N)C(=O)N[C@@H](CC(C)C)C(=O)N[C@@H](Cc1ccc(O)cc1)C(=O)N[C@@H](CCC(=O)O)C(=O)N[C@@H](CC(C)C)C(=O)N[C@@H](CC(C)C)C(=O)N[C@@H](Cc1c[nH]cn1)C(=O)NCC(=O)N[C@@H](C)C(=O)NCC(=O)N[C@@H](CC(N)=O)C(=O)N[C@@H](Cc1c[nH]cn1)C(=O)N[C@@H](C)C(=O)N[C@@H](C)C(=O)NCC(=O)N[C@H](C(=O)N[C@@H](CC(C)C)C(=O)N[C@H](C(=O)N[C@@H](CC(C)C)C(=O)O)[C@@H](C)O)[C@@H](C)CC` ([pGlu]PLPDC[Abu]RQKTCS[Abu]RLYELLHGAGNHAAGILTL-OH), which EC50 is on record?
The EC50 was 1.34 µM.

Which EC50 does the source give for `CC[C@H](C)[C@H](NC(=O)CNC(=O)[C@H](C)NC(=O)[C@H](C)NC(=O)[C@H](Cc1cnc[nH]1)NC(=O)[C@H](CC(N)=O)NC(=O)CNC(=O)[C@H](C)NC(=O)CNC(=O)[C@H](Cc1cnc[nH]1)NC(=O)[C@H](CC(C)C)NC(=O)[C@H](CC(C)C)NC(=O)[C@H](CCC(=O)O)NC(=O)[C@H](Cc1ccc(O)cc1)NC(=O)[C@H](CC(C)C)NC(=O)[C@H](CCCNC(=N)N)NC(=O)[C@H](CS)NC(=O)[C@H](CO)NC(=O)[C@H](CS)NC(=O)[C@@H](NC(=O)[C@H](CCCCN)NC(=O)[C@H](CCC(N)=O)NC(=O)[C@H](CCCNC(=N)N)NC(=O)[C@H](CS)NC(=O)[C@H](CS)NC(=O)[C@H](CC(=O)O)NC(=O)[C@@H]1CCCN1C(=O)[C@H](CC(C)C)NC(=O)[C@@H]1CCCN1C(=O)[C@@H]1CCC(=O)N1)[C@@H](C)O)C(=O)N[C@@H](CC(C)C)C(=O)N[C@H](C(=O)N[C@@H](CC(C)C)C(=O)O)[C@@H](C)O` here?
Its EC50 is 0.16 µM.

Which EC50 does the source give for `CC[C@H](C)[C@H](NC(=O)CNC(=O)[C@H](C)NC(=O)[C@H](C)NC(=O)[C@H](Cc1c[nH]cn1)NC(=O)[C@H](CC(N)=O)NC(=O)CNC(=O)[C@H](CO)NC(=O)[C@H](C)NC(=O)[C@H](CCC(N)=O)NC(=O)[C@H](CC(C)C)NC(=O)[C@H](CC(C)C)NC(=O)[C@H](CCCN=C(N)N)NC(=O)[C@H](CCC(N)=O)NC(=O)[C@H](CC(C)C)NC(=O)[C@H](C)NC(=O)CNC(=O)[C@H](CCC(N)=O)NC(=O)[C@H](CC(C)C)NC(=O)CN)C(=O)N[C@@H](CC(C)C)C(=O)N[C@H](C(=O)N[C@@H](CCSC)C(=O)O)[C@@H](C)O` (H-GLQGALQRLLQASGNHAAGILTM-OH) here?
Its EC50 is 6.95 µM.

With `CC[C@H](C)[C@H](NC(=O)CNC(=O)[C@H](C)NC(=O)[C@H](C)NC(=O)[C@H](Cc1c[nH]cn1)NC(=O)[C@H](CC(N)=O)NC(=O)CNC(=O)[C@H](CO)NC(=O)[C@H](C)NC(=O)[C@H](CCC(N)=O)NC(=O)[C@H](CC(C)C)NC(=O)[C@H](CC(C)C)NC(=O)[C@H](CCCNC(=N)N)NC(=O)[C@H](C)NC(=O)[C@H](CC(C)C)NC(=O)[C@H](CCCNC(=N)N)NC(=O)CNC(=O)[C@H](CCC(N)=O)NC(=O)[C@H](CC(C)C)NC(=O)CN)C(=O)N[C@@H](CC(C)C)C(=O)N[C@H](C(=O)N[C@@H](CCSC)C(=O)O)[C@@H](C)O` (H-GLQGRLARLLQASGNHAAGILTM-OH) as the molecule, how does the EC50 read?
The EC50 was 1.3 µM.

Which EC50 does the source give for `CC[C@H](C)[C@H](NC(=O)CNC(=O)[C@H](C)NC(=O)[C@H](C)NC(=O)[C@H](Cc1c[nH]cn1)NC(=O)[C@H](CC(N)=O)NC(=O)CNC(=O)[C@H](CO)NC(=O)[C@H](C)NC(=O)[C@H](CCC(N)=O)NC(=O)[C@H](CC(C)C)NC(=O)[C@H](CC(C)C)NC(=O)[C@H](CCCN=C(N)N)NC(=O)[C@H](CCC(N)=O)NC(=O)[C@H](CC(C)C)NC(=O)[C@H](CCCN=C(N)N)NC(=O)[C@@H]1CCCN1C(=O)[C@H](CCC(N)=O)NC(=O)[C@H](CC(C)C)NC(=O)CN)C(=O)N[C@@H](CC(C)C)C(=O)N[C@H](C(=O)N[C@@H](CCSC)C(N)=O)[C@@H](C)O` (H-GLQPRLQRLLQASGNHAAGILTM-NH2) here?
Its EC50 is 4.46 µM.

With `CC[C@H](C)[C@H](NC(=O)CNC(=O)[C@H](C)NC(=O)[C@H](C)NC(=O)[C@H](Cc1c[nH]cn1)NC(=O)[C@H](CC(N)=O)NC(=O)CNC(=O)[C@H](CO)NC(=O)[C@H](C)NC(=O)[C@H](CCC(N)=O)NC(=O)[C@H](CC(C)C)NC(=O)[C@H](CC(C)C)NC(=O)[C@H](CCCNC(=N)N)NC(=O)[C@H](CCC(N)=O)NC(=O)[C@H](C)NC(=O)[C@H](CCCNC(=N)N)NC(=O)CNC(=O)[C@H](CCC(N)=O)NC(=O)[C@H](CC(C)C)NC(=O)CN)C(=O)N[C@@H](CC(C)C)C(=O)N[C@H](C(=O)N[C@@H](CCSC)C(=O)O)[C@@H](C)O` (H-GLQGRAQRLLQASGNHAAGILTM-OH) as the molecule, how does the EC50 read?
Its EC50 is 11.4 µM.

Which EC50 does the source give for `CC[C@H](C)[C@H](NC(=O)CNC(=O)[C@H](C)NC(=O)[C@H](C)NC(=O)[C@H](Cc1c[nH]cn1)NC(=O)[C@H](CC(N)=O)NC(=O)CN)C(=O)N[C@@H](CC(C)C)C(=O)N[C@H](C(=O)N[C@@H](CC(C)C)C(N)=O)[C@@H](C)O` (H-GNHAAGILTL-NH2) here?
The EC50 was > 1000 µM.

`CC[C@H](C)[C@H](NC(=O)CNC(=O)[C@H](C)NC(=O)[C@H](C)NC(=O)[C@H](Cc1c[nH]cn1)NC(=O)[C@H](CC(N)=O)NC(=O)CNC(=O)[C@H](CO)NC(=O)[C@H](C)NC(=O)[C@H](CCC(N)=O)NC(=O)[C@H](CC(C)C)NC(=O)[C@H](CC(C)C)NC(=O)[C@H](CCCN=C(N)N)NC(=O)[C@H](CCC(N)=O)NC(=O)[C@H](CC(C)C)NC(=O)[C@H](CCCN=C(N)N)NC(=O)CNC(=O)[C@H](CCC(N)=O)NC(=O)[C@H](C)NC(=O)CN)C(=O)N[C@@H](CC(C)C)C(=O)N[C@H](C(=O)N[C@@H](CCSC)C(N)=O)[C@@H](C)O` (H-GAQGRLQRLLQASGNHAAGILTM-NH2) was tested. Which EC50 did it give?
The EC50 was 7.41 µM.

Which EC50 does the source give for `CC[C@H](C)[C@H](NC(=O)CNC(=O)[C@H](C)NC(=O)[C@H](C)NC(=O)[C@H](Cc1c[nH]cn1)NC(=O)[C@H](CC(N)=O)NC(=O)[C@H](C)NC(=O)[C@H](CO)NC(=O)[C@H](C)NC(=O)[C@H](CCC(N)=O)NC(=O)[C@H](CC(C)C)NC(=O)[C@H](CC(C)C)NC(=O)[C@H](CCCN=C(N)N)NC(=O)[C@H](CCC(N)=O)NC(=O)[C@H](CC(C)C)NC(=O)[C@H](CCCN=C(N)N)NC(=O)CNC(=O)[C@H](CCC(N)=O)NC(=O)[C@H](CC(C)C)NC(=O)CN)C(=O)N[C@@H](CC(C)C)C(=O)N[C@H](C(=O)N[C@@H](CCSC)C(=O)O)[C@@H](C)O` (H-GLQGRLQRLLQASANHAAGILTM-OH) here?
Its EC50 is 2.21 µM.

How did the EC50 turn out when `CC[C@H](C)[C@H](NC(=O)CNC(=O)[C@H](C)NC(=O)[C@H](C)NC(=O)[C@H](Cc1cnc[nH]1)NC(=O)[C@H](CC(N)=O)NC(=O)CNC(=O)[C@H](CO)NC(=O)[C@H](C)NC(=O)[C@H](CCC(N)=O)NC(=O)[C@H](CC(C)C)NC(=O)[C@H](CC(C)C)NC(=O)[C@@H]1CCCN1C(=O)[C@H](CCC(N)=O)NC(=O)[C@H](CC(C)C)NC(=O)[C@H](CCCNC(=N)N)NC(=O)CNC(=O)[C@H](CCC(N)=O)NC(=O)[C@H](CC(C)C)NC(=O)CN)C(=O)N[C@@H](CC(C)C)C(=O)N[C@H](C(=O)N[C@@H](CCSC)C(N)=O)[C@@H](C)O` (H-GLQGRLQPLLQASGNHAAGILTM-NH2) was run?
Its EC50 is 17.8 µM.

With `CC[C@H](C)[C@H](NC(=O)CNC(=O)[C@H](C)NC(=O)[C@H](C)NC(=O)[C@H](Cc1c[nH]cn1)NC(=O)[C@H](CC(N)=O)NC(=O)CNC(=O)[C@H](C)NC(=O)CNC(=O)[C@H](Cc1c[nH]cn1)NC(=O)[C@H](CC(C)C)NC(=O)[C@@H](N)CC(C)C)C(=O)N[C@@H](CC(C)C)C(=O)N[C@H](C(=O)N[C@@H](CC(C)C)C(N)=O)[C@@H](C)O` (H-LLHGAGNHAAGILTL-NH2) as the molecule, how does the EC50 read?
Its EC50 is > 1000 µM.

For `CC[C@H](C)[C@H](NC(=O)CNC(=O)[C@H](C)NC(=O)[C@H](C)NC(=O)[C@H](Cc1c[nH]cn1)NC(=O)[C@H](CC(N)=O)NC(=O)CNC(=O)[C@H](CO)NC(=O)[C@H](C)NC(=O)[C@H](CCC(N)=O)NC(=O)[C@H](CC(C)C)NC(=O)[C@H](CC(C)C)NC(=O)[C@H](CCCN=C(N)N)NC(=O)[C@H](CCC(N)=O)NC(=O)[C@H](CC(C)C)NC(=O)[C@H](CCCN=C(N)N)NC(=O)[C@H](C)NC(=O)[C@H](CCC(N)=O)NC(=O)[C@H](CC(C)C)NC(=O)CN)C(=O)N[C@@H](CC(C)C)C(=O)N[C@H](C(=O)N[C@@H](CCSC)C(N)=O)[C@@H](C)O` (H-GLQARLQRLLQASGNHAAGILTM-NH2), which EC50 is on record?
The EC50 was 2.3 µM.

How did the EC50 turn out when `CC[C@H](C)[C@H](NC(=O)CNC(=O)[C@H](C)NC(=O)[C@H](C)NC(=O)[C@H](Cc1c[nH]cn1)NC(=O)[C@H](CC(N)=O)NC(=O)CNC(=O)[C@H](C)NC(=O)CNC(=O)[C@H](Cc1c[nH]cn1)NC(=O)[C@H](CC(C)C)NC(=O)[C@H](CC(C)C)NC(=O)CCCCCNC(=O)[C@H](CC(=O)O)NC(=O)[C@@H]1CCCN1C(=O)[C@H](CC(C)C)NC(=O)[C@@H]1CCCN1C(=O)[C@@H]1CCC(=O)N1)C(=O)N[C@@H](CC(C)C)C(=O)N[C@H](C(=O)N[C@@H](CC(C)C)C(=O)O)[C@@H](C)O` ([pGlu]PLPD[Ahx]LLHGAGNHAAGILTL-OH) was run?
Its EC50 is > 1000 µM.

For `CC[C@H](C)[C@H](NC(=O)[C@H](C)NC(=O)[C@H](C)NC(=O)[C@H](C)NC(=O)[C@H](Cc1cnc[nH]1)NC(=O)[C@H](CC(N)=O)NC(=O)CNC(=O)[C@H](CO)NC(=O)[C@H](C)NC(=O)[C@H](CCC(N)=O)NC(=O)[C@H](CC(C)C)NC(=O)[C@H](CC(C)C)NC(=O)[C@H](CCCNC(=N)N)NC(=O)[C@H](CCC(N)=O)NC(=O)[C@H](CC(C)C)NC(=O)[C@H](CCCNC(=N)N)NC(=O)CNC(=O)[C@H](CCC(N)=O)NC(=O)[C@H](CC(C)C)NC(=O)CN)C(=O)N[C@@H](CC(C)C)C(=O)N[C@H](C(=O)N[C@@H](CCSC)C(=O)O)[C@@H](C)O` (H-GLQGRLQRLLQASGNHAAAILTM-OH), which EC50 is on record?
Its EC50 is > 1000 µM.
